Test results from US9108936B2, “Substituted 4-aminobenzamides as KCNQ2/3 modulators” (GRUENENTHAL GMBH, priority 2012, dated 2015).

What was measured:
KCNQ2/3 channels = target: T1, KCNQ2/3 channels (Homo sapiens, UniProt O43525+O43526); experiment: Fluorescence assay using a voltage sensitive dye (fluorimetry); format: cell-based; settings: CHO-K1 cells expressing KCNQ2/3; for Emax: plateau effect relative to saturated Retigabine (50 μM), read-out: Fluorimetry % efficacy (retigabine = 100%); for EC50: voltage-sensitive dye, KCl depolarization, read-out: Fluorimetry EC50/IC50
T1 construct: expressed in transfected cells; host or cells: CHO-K1
From the text: Method I. Fluorescence Assay Using a Voltage Sensitive Dye (Fluorimetry)
The modulation of the KCNQ opening state (and consequently the voltage potential of a cell) by test compounds such as compounds according to the present invention results in an increased or reduced amount of a voltage-sensitive dye in the cytoplasm of the cells tested. These voltage-sensitive dyes are fluorescent dyes and, therefore, are forming the link between cell potential influenced by KCNQ modulation and fluorescence intensity. A KCNQ agonist leads to an opening of the channel, potassium and dye efflux, a following hyperpolarization and a reduction of the inner fluorescence intensity in a kinetic protocol. If applying an ion jump by KCl depolarization, KCNQ agonists increase the ΔF/F value. An antagonist performs vice versa, respectively.
The ‘fluorimetry EC50’ is the half maximum effective concentration (EC50), where the concentration of a drug/compound induces a response halfway between the baseline and maximum plateau effect. In other words, said value represents the concentration of a compound, where 50% of its maximal effect in the fluorimetric assay is observed if the substance concentration is graphed against the corresponding ΔF/F values (for which the calculation method is described below). Therefore, ‘fluorimetry EC50’ is a measure for the compound potency. The compound efficacy is mirrored by ‘fluorimetry % efficacy’ (‘% Efficacy’) and refers to the maximum response achievable by the test compound, i.e. the plateau effect. This drug's plateau effect is related to the plateau effect, which can be achieved by applying a saturated concentration of a reference compound, e.g. Retigabine (50 μM), in independent wells of the same experimental plate or series. A compound showing 100% efficacy is as efficacious as the reference compound (Retigabine) with a saturated concentration.
[…] CHO-K1 cells expressing KCNQ2/3 channels are cultivated adherently at 37° C., 5% CO2 and 95% humidity in cell culture bottles (e.g. 80 cm^2 TC flasks, Nunc) with DMEM-high glucose (Sigma Aldrich, D7777) including 10% FCS (PAN Biotech, e.g. 3302-P270521) or alternatively MEM Alpha Medium (1×, liquid, Invitrogen, #22571), 10% fetal calf serum (FCS) (Invitrogen, #10270-106, heat-inactivated) and the necessary selection antibiotics.
Before being sown out for the measurements, the cells are washed with 1× DPBS buffer Ca^2+/Mg^2+-free (e.g. Invitrogen, #14190-094) and detached from the bottom of the culture vessel by using Accutase (PAA Laboratories, #L11-007) (incubation with Accutase for 15 min at 37° C.). The cell number is determined using a CASY™ cell counter (TCC, Schärfe System). Depending on the optimal density for each individual cell line, 20,000-30,000 cells/well/100 μl are seeded onto 96-well Corning™ CellBIND™ assay plates (Flat Clear Bottom Black Polystyrene Microplates, #3340). Freshly seeded cells are then left to settle for one hour at room temperature, followed by incubation for 24 hours at 37° C., 5% CO2 and 95% humidity.
The voltage-sensitive fluorescent dye from the Membrane Potential Assay Kit (Red™ Bulk format part R8123 for FLIPR, MDS Analytical Technologies™) is prepared by dissolving the contents of one vessel Membrane Potential Assay Kit Red Component A in 200 ml of extracellular buffer (ES buffer, 120 mM NaCl, 1 mM KCl, 10 mM HEPES, 2 mM CaCl2, 2 mM MgCl2, 10 mM glucose; pH 7.4). After removal of the nutrient medium, the cells are washed once with 200 μl of ES buffer, then loaded for 45 min at room temperature in 100 μl of dye solution in the dark.
Fluorescence measurements are carried out in a BMG Labtech FLUOstar™, BMG Labtech NOVOstar™ or BMG Labtech POLARstar™ instrument (525 nm excitation, 560 nm emission, Bottom Read mode). […]

Male Sprague-Dawley rats = experiment: Low-intensity tail flick test (rat); format: in vivo; settings: for ED50: po, peroral, at time of maximum efficacy
Protocol: Method II. Low-Intensity Tail Flick Test (Rat)
In the low-intensity tail flick test, the determination of the antinociceptive effect of the compounds according to the invention towards an acute noxious thermal stimulus is carried out by measuring the withdrawal reflex of the rat tail (tail flick) in response to a radiant heat beam (analgesia meter; model 2011 of the company Rhema Labortechnik, Hofheim, Germany) according to the method described by D'Amour and Smith (J. Pharm. Exp. Ther. 72, 74 79 (1941). To this end, the rats were placed in a plexiglas restrainer, and a low-intensity radiant heat beam (48° C.) was focused onto the dorsal surface of the tail root. The stimulus intensity was adjusted to result in a mean pre-drug control withdrawal latency of about 7 s, thus also allowing a supraspinal modulation of the spinally mediated acute nociceptive reflex. A cutoff time of 30 s was applied to avoid tissue damage. Male Sprague-Dawley rats (Janvier, Le Genest St. Isle, Frankreich) with weights of 200-250 g were used. 10 rats were used per group. Before administration of a compound according to the invention, the animals were pre-tested twice in the course of five minutes and the mean of these measurements was calculated as the pre-test mean. The antinociceptive effect was determined at 20, 40 and 60 min after peroral compound administration. The antinociceptive effect was calculated based on the increase in the tail withdrawal latency according to the following formula and is expressed as percentage of the maximum possible effect (MPE [%]): MPE=[(T1−T0)/(T2−T0)]*100
In this, T0 is the control latency time before and T1 the latency time after administration of the compound, T2 is the cutoff time and MPE is the maximum possible effect. Employing variant analysis (repeated measures ANOVA) allowed testing of statistically significant differences between the compounds according to the invention and the vehicle group. The significance level was set to p≦0.05. To determine the dose dependency, the particular compound according to the invention was administered in 3-5 logarithmically increasing doses, including a threshold dose and a maximum effective dose, and the ED50 values were determined with the aid of regression analysis. The ED50 calculation was performed at the time of maximum efficacy (usually 20 min after administration of the compounds).

Row | SMILES | Emax (KCNQ2/3 channels) [%] | EC50 (KCNQ2/3 channels) [µM] | Low intensity tail flick, rat, peroral, MPE (dose) (Male Sprague-Dawley rats; dose 14.7 mg/kg) [%] | ED50 (Male Sprague-Dawley rats) [mg/kg] | Low intensity tail flick, rat, peroral, MPE (dose) (Male Sprague-Dawley rats; dose 10 mg/kg) [%]
1 | Cc1cc(N2CCOCC2)cc(C(C)C)c1C(=O)NCc1ccc(F)cc1 [Example 17, N-[(4-Fluorophenyl)methyl]-2-isopropyl-6-methyl-4-morpholin-4-yl-benzamide] | 179 | 0.663 | 100 | 2.5 | –
2 | Cc1cc(N2CCOCC2)cc(C2CCOC2)c1C(=O)NCc1ccc(Cl)cc1 (stereo not shown) [Example 37, N-[(4-Chlorophenyl)-methyl]-2-methyl-4-morpholin-4-yl-6-tetrahydro-furan-3-yl-benzamide] | 166 | 1.69 | – | – | –
3 | Cc1cc(N2CCOCC2)cc(C(F)F)c1C(=O)NCc1ccc(Cl)cc1 [Example 20, N-[(4-Chlorophenyl)-methyl]-2-(difluoro-methyl)-6-methyl-4-morpholin-4-yl-benzamide] | 144 | 0.708 | – | – | –
4 | CCSc1cc(N2CCOCC2)cc(C)c1C(=O)NCCCC(C)(C)C [Example 3, N-(4,4-Dimethyl-pentyl)-2-ethylsulfanyl-6-methyl-4-morpholin-4-yl-benzamide] | 220 | 0.335 | – | – | –
5 | COc1cc(N2CCOCC2)cc(C(C)C)c1C(=O)NCc1ccc(Cl)cc1 [Example 40, N-[(4-Chlorophenyl)-methyl]-2-isopropyl-6-methoxy-4-morpholin-4-yl-benzamide] | 196 | 0.165 | – | – | –
6 | Cc1cc(N2CCOCC2)cc(C(C)C)c1C(=O)NCc1ccc(C(F)(F)F)cc1 [Example 22, 2-Isopropyl-6-methyl-4-morpholin-4-yl-N-[[4-(trifluoromethyl)-phenyl]-methyl]-benzamide] | 148 | 0.184 | – | – | –
7 | Cc1cc(N2CCOCC2)cc(C2CCCC2)c1C(=O)NCc1ccc(Cl)cc1 [Example 16, N-[(4-Chlorophenyl)-methyl]-2-cyclopentyl-6-methyl-4-morpholin-4-yl-benzamide] | 194 | 0.033 | – | – | –

Continued, in another order:

Row | Emax (KCNQ2/3 channels) [%] | EC50 (KCNQ2/3 channels) [µM] | SMILES | Low intensity tail flick, rat, peroral, MPE (dose) (Male Sprague-Dawley rats; dose 14.7 mg/kg) [%] | ED50 (Male Sprague-Dawley rats) [mg/kg] | Low intensity tail flick, rat, peroral, MPE (dose) (Male Sprague-Dawley rats; dose 10 mg/kg) [%]
8 | 175 | 0.136 | Cc1cc(N2CCOCC2)cc(C(C)C)c1C(=O)NCc1ccc(Cl)cc1 [Example 14, N-[(4-Chlorophenyl)-methyl]-2-isopropyl-6-methyl-4-morpholin-4-yl-benzamide] | – | 3.6 | 92
9 | 230 | 0.416 | Cc1cc(N2CCOCC2)cc(C(C)C)c1C(=O)NCC[C@H](O)C(C)(C)C [Example 31, N-[(3S)-3-Hydroxy-4,4-dimethyl-pentyl]-2-isopropyl-6-methyl-4-morpholin-4-yl-benzamide] | – | – | –
10 | 212 | 3.1 | Cc1cc(N2CCOCC2)cc(C(C)C)c1C(=O)NCC[C@@H](O)C(C)(C)C [Example 30, N-[(3R)-3-Hydroxy-4,4-dimethyl-pentyl]-2-isopropyl-6-methyl-4-morpholin-4-yl-benzamide] | – | – | –
11 | 147 | 1.64 | COc1cc(N2CCOCC2)cc(C)c1C(=O)NCc1ccc(Cl)cc1 [Example 10, N-[(4-Chlorophenyl)-methyl]-2-methoxy-6-methyl-4-morpholin-4-yl-benzamide] | – | – | –
12 | 88 | 5.56 | CCS(=O)(=O)c1cc(N2CCOCC2)cc(C)c1C(=O)NCc1ccc(Cl)cc1 [Example 8, N-[(4-Chlorophenyl)-methyl]-2-(ethylsulfonyl)-6-methyl-4-morpholin-4-yl-benzamide] | – | – | –
